Reference: patent US11147272B2, “Pyridone compounds and agricultural and horticultural fungicides comprising the same as active ingredients” (MITSUI CHEMICALS AGRO, INC., priority 2017, dated 2021)

Key:
Botrytis cinerea = assay: Test Example B: Gray mold on tomato; conditions: for Test B control value class: class of control value
Magnaporthe grisea = assay: whole plant or invertebrate; format: in vivo; conditions: for Test A control value class: class of control value
[1] = tested on: Colletotrichum orbiculare; assay: Test Example H: Anthracnose on cucumber; conditions: for Test H control value: 6 to 10 days after inoculation; for Test H control value class: Anthracnose on cucumber (Sagami Hanjiro), 2.5 ml/pot, assessed 6 to 10 days after inoculation
[2] = tested on: Blumeria graminis f. sp. hordei; assay: Test Example D: Powdery mildew on barley; conditions: for Test D control value class: class of control value
Phytophthora infestans = assay: whole plant or invertebrate; format: in vivo; conditions: for Test F control value class: class of control value
Plasmopara viticola = assay: Test Example G: Downy mildew on vine; conditions: for Test G control value: 7 to 10 days after inoculation; for Test G control value class: Downy mildew on vine (Neomuscat), 2.5 ml/pot, assessed 7 to 10 days after inoculation
Puccinia recondita = assay: Test Example E: Brown rust on wheat; format: in vivo; conditions: for Test E control value class: class of control value
Alternaia brassicicola = assay: Test Example C: Alternaria sooty spot on cabbage; format: in vivo; conditions: for Test C control value class: class of control value
Description: Seeds of a test plant (cabbage variety: Shikidori) were planted and cultivated until the cotyledons extended.
<Control Value> Control value=100{1−(n/3)}

[3] = Gray mold on tomato, control value class
[4] = Blast on rice, control value class
[5] = Anthracnose on cucumber, 250 ppm spray
[6] = Powdery mildew on barley, control value class
[7] = Late blight on tomato, control value class
[8] = Downy mildew on vine, 250 ppm spray
[9] = Brown rust on wheat, control value class
[10] = Alternaria sooty spot on cabbage, control value class
[11] = 250 ppm drug solution sprayed on test plant
[12] = 250 ppm drug solution sprayed (2.5 ml/pot), cucumber Sagami Hanjiro
[13] = 250 ppm drug solution sprayed (2.5 ml/pot), grape Neomuscat
[14] = Alternaria sooty spot on cabbage

Structure (SMILES) | Test B control value (Botrytis cinerea; [3]) | Test A control value (Magnaporthe grisea; [4]) | Test H control value [1, 5] | Test D control value [2, 6] | Test F control value (Phytophthora infestans; [7]) | Test G control value (Plasmopara viticola; [8]) | Test E control value (Puccinia recondita; [9]) | Test C control value (Alternaia brassicicola; [10]) | further results
CCn1c(-c2c(F)cc(F)cc2F)c(C(O)C(C)C)cc(Br)c1=O (stereo not shown) [compound 365] | H (more than 50% control value) | H (more than 50% control value) | H (more than 50% control value) | H (more than 50% control value) | L (50% or less control value) | H (more than 50% control value) | H (more than 50% control value) | H (more than 50% control value) | –
CCCc1ccc(=O)n(CC)c1-c1ccc(F)cc1Br [compound 361] | H (more than 50% control value) | H (more than 50% control value) | L (50% or less control value) | H (more than 50% control value) | L (50% or less control value) | L (50% or less control value) | H (more than 50% control value) | L (50% or less control value) | –
CCCCCCCCc1ccc(=O)n(CC)c1-c1ccc(F)cc1Cl [compound 270] | L (50% or less control value) | L (50% or less control value) | L (50% or less control value) | H (more than 50% control value) | L (50% or less control value) | L (50% or less control value) | L (50% or less control value) | L (50% or less control value) | –
CCn1c(-c2c(F)cc(F)cc2F)c(C(=O)C(C)C)ccc1=O [compound 454] | – | – | – | – | – | – | – | – | Test B control value (Botrytis cinerea; [11]): H (more than 50% control value); Test A control value (Magnaporthe grisea; [11]): L (50% or less control value); Test H control value [1, 12]: H (more than 50% control value); Test D control value [2, 11]: H (more than 50% control value); Test F control value (Phytophthora infestans; [11]): L (50% or less control value); Test G control value (Plasmopara viticola; [13]): L (50% or less control value); Test E control value (Puccinia recondita; [11]): H (more than 50% control value); Test C control value (Alternaia brassicicola; [11]): H (more than 50% control value)
CCn1c(-c2c(F)cc(F)cc2F)c(CN(C)C(C)C)cc(Cl)c1=O [compound 86] | – | – | – | – | – | – | – | – | Test B control value class (Botrytis cinerea; Gray mold on tomato): L (50% or less control value); Test A control value class (Magnaporthe grisea; Blast on rice): L (50% or less control value); Test H control value class ([1]; 250 ppm spray): L (50% or less control value); Test D control value class ([2]; Powdery mildew on barley): L (50% or less control value); Test F control value class (Phytophthora infestans; Late blight on tomato): L (50% or less control value); Test G control value class (Plasmopara viticola; 250 ppm spray): L (50% or less control value); Test E control value class (Puccinia recondita; Brown rust on wheat): L (50% or less control value); Test C control value class (Alternaia brassicicola; [14]): H (more than 50% control value)
CCCC1=C(c2c(F)cc(F)cc2F)N(CC)C(=O)CC1 [compound 371] | H (more than 50% control value) | L (50% or less control value) | L (50% or less control value) | L (50% or less control value) | L (50% or less control value) | L (50% or less control value) | L (50% or less control value) | L (50% or less control value) | –
CCn1c(-c2c(F)cc(F)cc2F)c(C(C)(OC)C2CCCC2)cc(Cl)c1=O (stereo not shown) [compound 245] | L (50% or less control value) | L (50% or less control value) | L (50% or less control value) | L (50% or less control value) | L (50% or less control value) | L (50% or less control value) | L (50% or less control value) | H (more than 50% control value) | –
CCOC(C)(c1cc(Cl)c(=O)n(CC)c1-c1ccc(F)cc1)C(C)C (stereo not shown) [compound 215] | L (50% or less control value) | L (50% or less control value) | L (50% or less control value) | H (more than 50% control value) | L (50% or less control value) | L (50% or less control value) | L (50% or less control value) | L (50% or less control value) | –
CCn1c(-c2c(F)cc(F)cc2F)c(C(C)(O)C(C)C)ccc1=O (stereo not shown) [compound 455] | – | – | – | – | – | – | – | – | Test B control value (Botrytis cinerea; [11]): H (more than 50% control value); Test A control value (Magnaporthe grisea; [11]): L (50% or less control value); Test H control value [1, 12]: H (more than 50% control value); Test D control value [2, 11]: H (more than 50% control value); Test F control value (Phytophthora infestans; [11]): L (50% or less control value); Test G control value (Plasmopara viticola; [13]): H (more than 50% control value); Test E control value (Puccinia recondita; [11]): H (more than 50% control value); Test C control value (Alternaia brassicicola; [11]): H (more than 50% control value)
CCCCCCc1cc(Br)c(=O)n(CC)c1-c1ccc(F)cc1Cl [compound 293] | L (50% or less control value) | L (50% or less control value) | L (50% or less control value) | H (more than 50% control value) | L (50% or less control value) | L (50% or less control value) | L (50% or less control value) | H (more than 50% control value) | –
CCCc1ccc(=O)n(C)c1-c1ccc(F)cc1Cl [compound 329] | H (more than 50% control value) | L (50% or less control value) | L (50% or less control value) | H (more than 50% control value) | L (50% or less control value) | L (50% or less control value) | H (more than 50% control value) | L (50% or less control value) | –
CCn1c(-c2c(F)cc(F)cc2F)c(C(=O)C2CCCC2)cc(Cl)c1=O [compound 232] | H (more than 50% control value) | H (more than 50% control value) | L (50% or less control value) | H (more than 50% control value) | L (50% or less control value) | L (50% or less control value) | H (more than 50% control value) | H (more than 50% control value) | –
CCn1c(-c2ccc(OCC3CC3)cc2F)c(CC(C)C)cc(Cl)c1=O [compound 129] | – | – | – | – | – | – | – | – | Test B control value class (Botrytis cinerea; Gray mold on tomato): H (more than 50% control value); Test A control value class (Magnaporthe grisea; Blast on rice): L (50% or less control value); Test H control value class ([1]; 250 ppm spray): L (50% or less control value); Test D control value class ([2]; Powdery mildew on barley): H (more than 50% control value); Test F control value class (Phytophthora infestans; Late blight on tomato): L (50% or less control value); Test G control value class (Plasmopara viticola; 250 ppm spray): H (more than 50% control value); Test E control value class (Puccinia recondita; Brown rust on wheat): H (more than 50% control value); Test C control value class (Alternaia brassicicola; [14]): H (more than 50% control value)
CCn1c(-c2ccc(F)cc2)c(C(O)C(C)C)cc(Cl)c1=O (stereo not shown) [compound 211] | H (more than 50% control value) | L (50% or less control value) | L (50% or less control value) | L (50% or less control value) | L (50% or less control value) | L (50% or less control value) | H (more than 50% control value) | H (more than 50% control value) | –
